Patent publication US20260028390A1, “ALPHA1-ANTITRYPSIN FOR USE IN THE TREATMENT OF DISEASES OR DISORDERS OF THE NERVOUS SYSTEM SUCH AS CHRONIC INFLAMMATORY DEMYELINATING POLYNEUROPATHY” (Ageronix SA, priority 2022, published 2026)
“And” between values parts separate entries of the source, which are not always exact repeats. Equal values may be shown once.

What was measured:
[1] = tested on: C3-PMP22 transgenic mice (CMT1A); assay: Rotarod test, CMT1A mouse study (50 mg/kg twice daily); format: in vivo; details: for Rotarod latency, Mean/animal / Rotarod latency, set 1, individual animals / Rotarod latency, set 2, individual animals / Rotarod latency, set 3, individual animals: CMT1A + AAT; for Rotarod latency (Mean ± SEM): CMT1A mice
Excerpt: As a murine model of CMT1A we used C3-PMP22 transgenic mice (B6.Cg-Tg(PMP22)C3Fbas/J, The Jackson Laboratory) which express three copies of a wild-type human peripheral myelin protein 22 (PMP22) gene (Verhamme, Camiel, et al. Journal of Neuropathology & Experimental Neurology 70.5 (2011): 386-398). Mice were housed in macrolon cages with filter hoods, in a continuously air-filtered room, thereby avoiding contamination. During experiments, paired animals were caged at a constant temperature with a day/night cycle of 12/12 hours. Animals were fed (control tap water and nutrition) ad libitum. Animal protocol is approved by the Animal Studies Committee of Languedoc Roussillon. This protocol and the laboratory procedures comply with French legislation, which implements the European Directives (Reference Number: D3417223, APAFIS #23920-2020020320279696 v3). Animal health was followed on a daily basis to ensure that only animals in good health enter the testing procedures and follow up the study.
Animals were split in 3 groups (wild-type control (subcutaneous 0.9% NaCl), CMT1A-vehicle (subcutaneous 0.9% NaCl), CMT1A-human alpha-1 antitrypsin (subcutaneous, twice daily, 50 mg/kg per injection)) of 3 mice each (3 weeks old males of 18±2.5 g at the beginning of study) and all went through the following protocol after 7 days of acclimation on site.
On the first and last day of treatment, the neuromuscular performance of animals was tested with a rotarod test, grip test and sciatic nerve electrophysiology test. After the last treatment at 8 weeks, these tests were repeated, and animals were sacrificed and the left sciatic nerve was sampled for histological evaluation of the number and size of […].
The rotarod test measures neuromuscular coordination by assessing the capacity of the animals to stay in balance on a rotating cylinder. Similar rotarod latency was observed between groups at the baseline (6 weeks old).

[2] = tested on: SH-SY5Y cells; assay: Cell growth (cell count, morphology) of SH-SY5Y treated with 6-OHDA; format: cell-based; details: 6-OHDA combined with AAT 25 μM, day 4 of culture, p=0.003
Procedure: SH-SY5Y cells, which are commonly used to model neurodegenerative disorders, were used to produce an in vitro Parkinson's model (Que R, et al., 2021, Front. Immunol. 12). Cells were cultured in DMEMF12/Glutamax supplemented with 10% FBS.
Cells were treated for 24 hours with the neurotoxin 6-hydroxydopamine (6-OHDA, Sigma Aldrich 162957) at 50, 100 μM concentrations alone or in combination with AAT 25 μM (AAT plasma derived, Sigma Aldrich batch A9024). Cells treated with AAT alone or in combination with 6-OHDA for 24 hours, were then incubated with fresh AAT for additional 24 hours. Control cells were treated with PBS.
At day 0 cells were plated in equally number in 24-well plate, the day after they were treated as described above, and final total cell count was performed at day 4 of culture (cell growth). Cell viability was assessed with Cell Counting Kit-8 (CCK-8; Sigma Aldrich 96992). After treatments, cells were incubated with 10 μl of CCK-8 solution for 2 hours in the incubator. Absorbance was measured at 450 nm using SpectraMax iD3 Microplate Reader. Experiments were performed in triplicate.

[3] = tested on: plasma NfL; assay: Plasma NfL quantification, CIDP mouse model; format: in vivo; details: for Plasma NfL, Mean Diff., CIDP + vehicle vs. CIDP + hAAT / Plasma NfL, Mean Diff., Sham negative control vs. CIDP + hAAT: Bonferroni's multiple comparisons test; for Plasma NfL concentration (Mean ± SD): CIDP mice; for NfL conc: per animal, listed as hAAT
Procedure: C57BL/6 mice were received at 8 weeks of age and housed under controlled conditions for the duration of the study. Three groups of 4 animals each were assigned to the following subcutaneous treatments twice daily at 7:00 AM and 7:00 PM for 2 weeks, from 20 to 35 days after the start of disease induction: • Wild type (WT) mice receiving the vehicle, 0.9% NaCl (positive control) • CIDP mice receiving the vehicle, 0.9% NaCl (negative control) • CIDP mice receiving human AAT (AAT), 50 mg/kg per injection
On the day preceding disease induction (Day 1), on the first (Day 20) and on the last (Day 35) treatment day, animals were subjected to blood samplings for the determination of neurofilament light chain (NfL), tumour necrosing factor alpha (TNFα) and TMPRSS5 levels, as described in FIG. 20. In addition, plasma levels of AAT were evaluated on the last treatment day.

[4] = tested on: plasma NfL; assay: Plasma NfL, CMT mice treated with AAT 180 mg/kg/day sc; format: in vivo, mouse
Excerpt: Animals were received at 6 weeks of age and housed under controlled conditions for the duration of the study. The study comprised two groups of 8 transgenic mice (CMT mice) each and one group of 8 age matched wild type (WT) C57B16 mice, serving as positive control. Animals were assigned to the following subcutaneous treatments twice daily at 7:00 AM and 7:00 PM for 2 weeks, starting from 8 weeks and up to 10 weeks of age: • Wild-type (WT, no disease) mice receiving vehicle, 0.9% NaCl (positive control) • CMT1A mice receiving vehicle, 0.9% NaCl (negative control) • CMT1A mice receiving AAT at 90 mg/kg per injection (daily dose 180 mg/kg)
The efficacy parameters included: • neuromuscular performance (rotarod latency to fall and grip strength test), • sciatic nerve electrophysiology (CMAP amplitude and NCV) • cytokine (IL-6 and TNFα), as well as NfL analysis • sciatic nerve histology (number of axons and axonal diameter),
As supportive information for the mode of action of AAT in CMT, plasma concentration of interleukin 6 (IL-6) and TNFα were measured at Day 1 (8 weeks), Day 15 (10 weeks) and Day 30 (12 weeks). At the same timepoints, plasma levels of the biomarker of nerve damage, NfL were determined.

Substance: alpha1-antitrypsin (AAT) protein
- Rotarod latency, Mean/animal ([1]; 6 weeks old (baseline)): 84.36 s and 71.19 s and 72.91 s
- Rotarod latency, set 1, individual animals ([1]; 6 weeks old (baseline)): 85.0 s and 51.4 s and 59.6 s
- Rotarod latency, set 2, individual animals ([1]; 6 weeks old (baseline)): 102.6 s and 93.4 s and 92.1 s
- Rotarod latency, set 3, individual animals ([1]; 6 weeks old (baseline)): 65.5 s and 68.8 s and 67.1 s
- Rotarod latency, Mean/animal ([1]; 8 weeks old): 49.76 s and 64.65 s and 56.12 s
- Rotarod latency, set 1, individual animals ([1]; 8 weeks old): 62.1 s and 83.2 s and 46.0 s
- Rotarod latency, set 2, individual animals ([1]; 8 weeks old): 35.7 s and 39.5 s and 46.0 s
- Rotarod latency, set 3, individual animals ([1]; 8 weeks old): 51.5 s and 71.3 s and 76.4 s
- rotarod latency compared to the control group ([1]; CMT1A mice treated with AAT, 8 weeks old): improvement
- Rotarod latency (Mean ± SEM) ([1]; 6 weeks old (baseline)): 76.15 ± 4.13 s
- Rotarod latency (Mean ± SEM) ([1]; 8 weeks old, AAT 50 mg/kg sc twice daily): 56.84 ± 4.31 s
- number of cells counted compared to 6-OHDA alone [2]: significantly increased
- Plasma NfL, Mean Diff., CIDP + vehicle vs. CIDP + hAAT ([3]; Day 1): 0.04828
- Plasma NfL, Mean Diff., Sham negative control vs. CIDP + hAAT ([3]; Day 1): 0.01878
- Plasma NfL, Mean Diff., CIDP + vehicle vs. CIDP + hAAT ([3]; Day 20): 0.2088
- Plasma NfL, Mean Diff., Sham negative control vs. CIDP + hAAT ([3]; Day 20): -2.85 ng/mL
- Plasma NfL, Mean Diff., CIDP + vehicle vs. CIDP + hAAT ([3]; Day 35): 1.01 ng/mL
- Plasma NfL, Mean Diff., Sham negative control vs. CIDP + hAAT ([3]; Day 35): -1.88 ng/mL
- plasma NfL concentration compared to the CIDP+vehicle treated group ([3]; CIDP + AAT, day 35): significant decrease
- Plasma NfL concentration (Mean ± SD) ([3]; Day 1): 0.29 ± 0.11 ng/mL
- Plasma NfL concentration (Mean ± SD) ([3]; Day 20): 3.12 ± 0.86 ng/mL
- Plasma NfL concentration (Mean ± SD) ([3]; Day 35): 2.30 ± 0.27 ng/mL
- NfL conc, group MEAN ([3]; Day 1): 0.29 ng/mL
- NfL conc, group MEAN ([3]; Day 20): 3.12 ng/mL
- NfL conc, group MEAN ([3]; Day 35): 2.30 ng/mL
- NfL conc ([3]; Day 1 (before model induction)): 0.3654 ng/mL and 0.2865 ng/mL and 0.3798 ng/mL and 0.1412 ng/mL
- NfL conc ([3]; Day 20 (before compound treatment)): 3.7596 ng/mL and 2.7654 ng/mL and 3.8846 ng/mL and 2.0831 ng/mL
- NfL conc ([3]; Day 35): 2.4447 ng/mL and 1.9017 ng/mL and 2.3497 ng/mL and 2.5056 ng/mL
- Plasma NfL (Mean ± SD) ([4]; 8 weeks old (baseline, Day 1), CMT1A + AAT): 3.83 ± 0.61 ng/mL
- Plasma NfL (Mean ± SD) ([4]; 10 weeks old (Day 15, after 2 weeks AAT 90 mg/kg sc twice daily)): 1.96 ± 0.46 ng/mL
- positive effect on NfL plasma levels ([4]; 12 weeks of age, after 2-week treatment-free period): remained significant
- Plasma NfL (Mean ± SD) ([4]; 12 weeks old (Day 30, after 2-week treatment-free period)): 4.25 ± 0.36 ng/mL
- level of NfL ([4]; CMT mice, AAT 90 mg/kg sc twice a day): reduced
